Results reported in patent US12610952B2, “Antimicrobial compositions and methods” (EVOQ NANO, INC., priority 2014, dated 2026).

Tested on: E. coli, ATCC #51813
Test: Antibacterial efficacy test, ATP Relative Light Unit (RLU) counts
Assay type: cell-based
Protocol: The NIST nanoparticles are formed by a chemical reduction process that utilizes citrate as reducing and capping agent.
Relative Light Unit (RLU) counts were recorded at 12 hours and 24 hours post treatment. RLU measurements were carried out using a Hygiena SystemSURE Plus V.2 SN067503 RLU meter with Hygenia AquaSnap TOTAL ATP Water Test Cat #U143 Lot #153019. Culturing media was Hardy Diagnostics Buffered Peptone Water Lot #118272. Samples were prepared with the nanoparticle treatments and then diluted with the media to provide the tested concentrations. The test organism (Microbiologics, E. coli, KwikStik, ATCC #51813, Ref #0791 K, Lot #791-1-6) was incubated in fresh Buffered Peptone Water growth media for 24 hours prior to exposure to the nanoparticle treatments.

## O=[N+]([O-])[O-].[Ag+] [AgNO3 Silver Nitrate, silver nitrate]
0.25 ppm (mg/L)
  RLU Counts at 12 Hours Post Exposure: 80 RLU
  RLU Counts at 24 Hours Post Exposure: 25 RLU
0.5 ppm (mg/L)
  RLU Counts at 12 Hours Post Exposure: 75 RLU
  RLU Counts at 24 Hours Post Exposure: 46 RLU
1.0 ppm (mg/L)
  RLU Counts at 12 Hours Post Exposure: 84 RLU
  RLU Counts at 24 Hours Post Exposure: 30 RLU
